Row | Compound | melting point [°C]
1 | CCCCOc1nc(-c2ccc(=O)n(C(C)C)n2)c(-c2ccccc2)nc1N | 130 to 132
2 | Nc1nnc(-c2cc3c(Oc4ccc(Br)cc4)cncc3s2)o1 | 270 to 273
3 | O=C(Nc1cc(F)c(N2CC(=O)N(COC3CCCCO3)C2)c(F)c1)OCc1ccccc1 (stereo not drawn) | 116 to 118
4 | CC1(C(=O)Nc2ccc(S(C)(=O)=O)c(C(F)(F)F)c2)CC1 | 135 to 138
5 | Cc1sc(-c2ccc(C(F)(F)F)cc2)nc1CCOc1ccc(CCC(=O)O)cc1 | 142 to 147
6 | CC(C)(C)OC(=O)C(=O)C=Cc1cccnc1 | 51 to 52
7 | CCOC(C#CC(=O)c1cc(OC)c(OC)c(OC)c1)OCC | 52 to 54
8 | CC(C)C[C@H](NC(=O)OCc1ccccc1)C(=O)N[C@@H](CC(N)=O)C(=O)NC(Cc1ccccc1)C(O)C(Cc1ccccc1)NC(=O)OC(C)(C)C (stereo partly drawn) | 192 to 194
9 | CCCCOCCOc1ccc(-c2ccc3c(c2)C=C(C(=O)Nc2ccc(C(O)c4ccccn4)c(OCC(F)(F)F)c2)CCN3C(=O)C(F)(F)F)cc1 (stereo not drawn) | 178 to 181
10 | CCOc1cc(O)c(C(=O)C=Cc2ccc(OC)cc2)c(OC)c1 | 122
11 | CCOC(=O)NC1=C(C(=O)OCC)CCC1 | 49 to 51
12 | CC(=O)Nc1nc2c(NC(=O)c3ccc4cc(Br)ccc4c3)cccc2s1 | 242
13 | OC1(c2cccc(-c3ccccc3)c2)CN2CCC1CC2 (stereo not drawn) | 165 to 166
14 | Cc1ncc(CN2CCc3cc(-c4ccccc4)ccc3C2)c(N)n1 | 186 to 188
15 | COc1ccc(S(=O)(=O)Nc2ccccc2NC(=O)c2ccc(F)cc2Cl)cc1 | 160 to 162
16 | COc1ccc(CNCCCOc2ccc(S(=O)(=O)c3c(C(C)C)cn4ccccc34)cc2)cc1OC | 109 to 111
17 | O=C(CCCCCOc1ccc(OCc2ccccc2)cc1)C(F)(F)F | 59 to 60
18 | Cc1cc(S(=O)(=O)Nc2cccnc2Nc2ccccc2)c(C)cc1Cl | 153 to 154
19 | COc1cn(-c2cccnc2)nc(-c2ccnn2-c2ccccc2)c1=O | 210 to 212
20 | COc1cc2c(cc1OC)-c1cc(=Nc3c(C)cc(C)cc3C)n(C(C)C)c(=O)n1CC2 | 178 to 179
21 | CNc1ccc(CCc2ccc(OC)c(OC)c2)cc1 | 82 to 84
22 | Cc1cccc(Nc2cc(Cl)nc(Cl)n2)c1C | 204 to 206
23 | CSc1cccc(NCC2CN(C(=O)Oc3ccccc3)CCO2)c1 (stereo not drawn) | 114 to 115
24 | CC(C)CC1NC(C)(C)CNC1=O (stereo not drawn) | 112 to 115

Row | Compound | melting point [°C]
25 | Nc1ncnc2c1ncn2Cc1ccccc1 | 231 to 232
26 | CN1C(=NC(=O)c2ccc(F)cc2)C(C(F)(F)F)(C(F)(F)F)NC1c1ccc(F)cc1 (stereo not drawn) | 132 to 133
27 | O=C(O)c1ccc(=O)n(Cc2ccc(-c3ccccc3)cc2)c1 | 245 to 250
28 | CC(C(=O)O)c1ccc(-n2cc(Br)cn2)c(Cl)c1 (stereo not drawn) | 116 to 117
29 | I/C(=C/C=C(/I)SCc1ccccc1)SCc1ccccc1 | 111 to 112
30 | Cc1cc(C2=CO[C@@](c3cc(Cl)cc(Cl)c3)(C(F)(F)F)C2)ccc1C(=O)NC1CS(=O)(=O)C1 | 90 to 105
31 | CN(CCCc1cccc(Oc2ccc(C(F)(F)F)cc2)c1)N=O | 75 to 76
32 | O=C(O)CCSC1c2ccc(-c3nnn[nH]3)cc2COc2ccc(OCc3ccc4ccccc4n3)cc21 (stereo not drawn) | 151 to 153
33 | O=C1C(=O)c2ccccc2C2=C1SCC1(CCN(CC(O)CN3CCOCC3)CC1)O2 (stereo not drawn) | 75 to 78
34 | COc1ccc(N2C(=O)C(=C3CCCN3)c3ccccc32)cc1F | 169 to 171
35 | O=C1CCCOc2ccc(OCc3ccccc3)cc21 | 62 to 63
36 | O=C(Nc1ccc(-n2nc(C(F)(F)F)cc2C(F)(F)F)cc1)c1cc(F)c(F)cc1F | 109 to 111
37 | CCc1c(C)n(C)c(=O)n(-c2cc(OC(C)C)c(Cl)cc2F)c1=O | 124 to 125
38 | CC(C)[C@H](NC(=O)OCc1ccccn1)C(=O)N[C@@H](Cc1ccccc1)[C@H](O)[C@H](O)[C@H](Cc1ccccc1)NC(=O)OCc1cccnc1 | 166 to 168
39 | CON=C(C(=O)O)c1cccc(OCc2ccccc2Cl)c1OCc1ccccc1Cl | 97 to 99
40 | COc1cc2c(cc1OC)-c1cc(OC)c(OC)cc1C2=Cc1ccnc2ccccc12 | 226 to 228
41 | O=C(O)c1ccc2cn[nH]c2c1 | > 250
42 | Cc1cc(C)cc(Oc2ccc([N+](=O)[O-])cc2S(=O)(=O)N2CCN(C(=O)OC(C)(C)C)CC2)c1 | 232 to 233
43 | COc1ccc([C@H]2CCc3ccccc3[C@@H]2C#N)cc1 (racemic) | 126 to 131
44 | CC(=O)SCC(C(=O)Nc1cccc(O)c1)C(F)(F)F (stereo not drawn) | 148 to 149
45 | CN1CCN2c3ccccc3Cn3cccc3C2C1 (stereo not drawn) | 98 to 100
46 | Nc1nc2[nH]c(CCCc3ccc(C(=O)N[C@@H](CCC(=O)O)C(=O)O)s3)cc2c(=O)[nH]1 | 175 to 176
47 | COC(=O)c1cc(N)cc(C(F)(F)F)n1 | 114
48 | Cn1cc(C(=O)NCc2ccc(Cl)cc2)c(=O)c2cc(CO)oc21 | 229 to 230

— a melting point compilation (Tetko et al.; mined from patent text by program, amines drawn as free bases though some values may be those of a salt)
